# How the values were obtained:
# A549 cells [1] = experiment: Early/late apoptosis by Annexin V-FITC/PI flow cytometry; format: cell-based, human; conditions: A549, IC50 dose, 24 h incubation
# Procedure: Phosphatidylserine externalization, a marker of early apoptosis, was assessed using the FITC Annexin V apoptosis detection kit (BD Pharmingen, San Jose, CA, USA) on a BD FACSAria flow cytometer. Following their collection, the A549 and L929 cells were twice washed in ice-cold PBS before being resuspended in 100 μL of binding buffer. The cells were treated with a volume of 5 μL (5 μg/mL) of Annexin V-FITC and PI, and they were incubated for 15 min at room temperature (20–25 °C) in the dark. Following that, 400 μL of binding buffer was added to the combination samples, and FACSDiva version 6.1.1 was used to analyze the samples on a BD FACSAria flow cytometer.
# A549 cells [2] = experiment: Cell cycle analysis by flow cytometry; format: cell-based, human; conditions: A549, 24 h incubation
# Procedure: Following a 24 h incubation period with the compounds, a cell cycle analysis measurement methodology was implemented in compliance with the manufacturer’s instructions for A549 cells (BD, Biosciences). Next, the cells were immersed in citrate buffer for a short while. At room temperature, the cells were centrifuged for 5 min at 400 g. After the supernatant was decanted, 250 μL of solution A was added to the pellet, and it was allowed to sit at room temperature for 10 min. Solution B (200 μL) was then added, carefully mixed, and incubated at room temperature for 10 min. Solution C (200 μL) was then added. It was gently mixed, allowed to stand at 4 °C for 10 min in the dark, and then examined using BD Bioscience’s MODFID software on a flow cytometer. This method was applied in our previous study.[54]
# caspase-3 = experiment: Caspase-3 activation in A549 cells; format: cell-based, human; conditions: A549, IC50 of the compounds, 24 h
# Procedure: The Spectrofluorometric Caspase-3 Assay kit (BD Pharmingen, Franklin Lakes, NJ) was used to assess the activation of caspase-3. The purpose of the kit was to measure the early indicator of cells going through apoptosis, known as caspase-3 or the DEVD-cleaving activity. First, 1 × 10^6 cells/mL of cells were resuspended in cold cell lysis buffer, rinsed with PBS, and then allowed to sit on ice for 30 min. […] In each reaction, a well containing 0.2 mL of 1 x HEPES buffer was filled with […] of reconstituted AcDEVD-AMC, a synthetic tetrapeptide fluorogenic substrate for caspase-3 activity. Each reaction/well received 20 μL of cell lysate. The reaction mixtures were incubated at 37 °C for 1 h. Using a microplate reader (Perkin-Elmer/Victor/X3) with an excitation wavelength of 380 nm and an emission wavelength of 460 nm, the amount of AMC released from Ac-DEVD-AMC was quantified. When compared with controls, apoptotic cell lysates containing active caspase-3 produced a significant emission. […] For all doses, duplicate wells were used. This experiment was performed according to Yurttaş et al.[52]
# [3] = system: A549 human lung cancer cell line; experiment: MTT cell viability / cytotoxicity on A549; format: cell-based; conditions: for IC50: MTT, mean ± S.D. of three determinations; for SI (L929/A549): selectivity index = IC50 on normal cells/IC50 on cancer cells
# Procedure: (§1) In 75 cm^2 sterile plastic tissue culture flasks, the human lung adenocarcinoma A549 and the mouse fibroblast L929 cell lines were cultured in 90% RPMI (Sigma, Deisenhofen, Germany) media supplemented with 10% (v/v) FBS (Gibco, Paisley, UK) and adherent monolayers of penicillin/streptomycin (100 units/mL) from Gibco, Paisley, UK. These cells were cultured at 37 °C in an environment that was humidified and contained 5% CO2.
# (§2) The MTT (3-(4,5-dimethylthiazol-2-yl)-2,5-diphenyltetrazolium bromide) method was applicated to assess the cell viability of L929, C6 and A549 cell lines against the tested compounds according to the reported data.[51] In 96-well plates with a flat bottom, the A549, C6, and L929 cells were cultivated at a density of 5 × 10^3 cells per well. […] After addition, they were incubated for a full day in culture wells. Following the incubation period, 20 μL of phosphate-buffered saline (PBS) (Gibco, Paisley, UK) containing 5 mg/mL MTT powder (Sigma-Aldrich, St. Louis, MO, USA) was added to each well. The medium was taken out of the plate and replaced with 100 μL of DMSO in each well to dissolve the dye. This was left for 2 to 4 h under the same conditions and then left for 10 min. At the conclusion of the procedure, purple formazan, the reduction product of the MTT agent, was formed by the mitochondrial dehydrogenase enzyme of intact cells. A microtiter plate reader (BioTek Plate Reader, Winooski, VT, USA) was used to measure the cells at 540 nm. Cell viability was measured as a percentage and contrasted with that of the cells in the control group. Half-maximal inhibitory concentration 50 (IC50) values were determined by repeating each concentration in three wells and identifying the drug concentrations that decreased the absorbance to 50% of control values. The medium control served as the basis for calculating the percentage of viable cells.
# A549 cells [4] = experiment: Mitochondrial membrane depolarization (JC-1, flow cytometry); format: cell-based, human; conditions: A549, IC50 concentration, 24 h
# Procedure: Staining of cells with JC-1 was realized according to the manufacturer’s recommendations of BD, Pharmingen Flow cytometry kit. […] For this purpose, cells were seeded at an optimal density in six-well plates (not exceeding 1 × 10^6/mL cells). The cells were then incubated with the substances to be tested at the appropriate concentration and time. After the treatment, each cell suspension was taken into a 15 mL polystyrene centrifuge tube and the cells were centrifuged at 400g for 5 min and removed from the supernatant. 0.5 mL of a freshly prepared working solution was added to each pellet, and the solution was vortexed. The test cells were soaked in a JC-1 working solution at 37 °C for 10–15 min, and the cells were washed twice. In the first wash, 2 mL of 1X assay buffer was added and the cells were suspended sensitively. Then, the cells were centrifuged at 400g for 5 min and the supernatant was removed, carefully. In the second wash, 1 mL of 1X assay buffer was added and vortexed. After the cells were centrifuged at 400g for 5 min, each cell pellet was suspended in 0.5 mL 1X assay buffer and vortexed. Finally, the cell was analyzed by a flow cytometer.
# MMP-9 enzyme = target: T1, MMP-9 enzyme (Homo sapiens, UniProt P14780); experiment: MMP-9 colorimetric inhibition assay; format: biochemical; conditions: for inhibition at 100 µg/mL: at 100 μg/mL
# T1 construct: purchased EnzoLife Sciences Inc. (Farmingdale, New York, NY, USA)
# T1 sequence (P14780 107-444 limits assumed): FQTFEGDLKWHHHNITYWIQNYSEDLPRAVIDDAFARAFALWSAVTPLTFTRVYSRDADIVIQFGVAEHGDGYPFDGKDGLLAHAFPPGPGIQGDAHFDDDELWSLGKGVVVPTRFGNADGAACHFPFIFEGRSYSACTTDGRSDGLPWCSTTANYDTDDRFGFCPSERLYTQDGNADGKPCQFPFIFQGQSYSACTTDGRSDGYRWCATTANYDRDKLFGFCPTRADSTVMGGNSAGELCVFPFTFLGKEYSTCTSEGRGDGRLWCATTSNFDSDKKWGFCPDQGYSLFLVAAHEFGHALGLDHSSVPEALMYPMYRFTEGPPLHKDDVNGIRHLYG
# Excerpt: As described in our previous study,[36] the method was applied in exactly the same manner. EnzoLife Sciences Inc. provided MMP-9 colorimetric kits (Farmingdale, New York, NY, USA). The MMP Colorimetric Drug Discovery Kits are a comprehensive test technique that uses a thiopeptide (Ac-PLG-[2-mercapto-4-methyl-pentanoyl]-LG-OC2H5) as a chromogenic substrate to screen MMP inhibitors. Using a microplate reader (BioTek, PowerWave, Gen5 software, Winooski, VT, USA) at room temperature, the UV absorbance was measured at 412 nm. NNGH was employed as an inhibitor of control.
# [5] = system: L929 murine fibroblast cell line; experiment: MTT cell viability / cytotoxicity on L929 (healthy cells); format: cell-based, mouse; conditions: mean ± S.D. of three determinations
# Procedure: as §1, §2
# C6 rat glioma cell line = experiment: MTT cell viability / cytotoxicity on C6; format: cell-based; conditions: mean ± S.D. of three determinations
# Procedure: as §2
# [6] = Homo sapiens, A549, A549 cell line
# [7] = Mus musculus, L929, L929 healthy cell line
SMILES,Q1: necrotic cells (A549 cells [1]) [%],Q2 + Q4: early and late apoptotic cells (A549 cells [1]) [%],Q2: late apoptotic cells (A549 cells [1]) [%],Q4: early apoptotic cells (A549 cells [1]) [%],% S (A549 cells [2]) [%],G0/G1% (A549 cells [2]) [%],G2/M % (A549 cells [2]) [%],% (+): caspase-3 activity positive cells (caspase-3) [%],% (−): caspase-3 activity negative cells (caspase-3) [%],mitochondrial membrane depolarization % (A549 cells [4]) [%],mitochondrial membrane polarization % (A549 cells [4]) [%],IC50 (MMP-9 enzyme) [µM],"IC50 [3, 6] [µM]",inhibition at 100 µg/mL (MMP-9 enzyme) [%],"IC50 [5, 7] [µM]",IC50 (C6 rat glioma cell line) [µM],other results
"N.N.[Cl][Pt][Cl] [cisplatin, reference compound]",28.01,10.07,5.04,5.03,2.18,74.75,23.07,11.3,90.0,22.36,76.67,–,–,–,–,–,IC50 ([3]; A549 cell line): 4.98 ± 0.66 µM
"COc1ccc(S(=O)(=O)N(CC(=O)NO)CC(C)C)cc1 [NNGH, N-isobutyl-N-(4-methoxyphenylsulfonyl)glycyl hydroxamic, reference compound]",–,–,–,–,–,–,–,–,–,–,–,0.0074 ± 0.0002,–,–,–,–,–
"COc1ccc(NC(=O)CSc2nnc(COc3ccccc3NC(C)=O)o2)cc1 [Compound 4i, 2-[(5-((2-Acetamidophenoxy)methyl)-1,3,4-oxadiazol-2-yl)thio]-N-(4-methoxyphenyl)acetamide]",30.12,21.54,9.75,11.79,8.09,78.78,12.14,1.9,98.2,8.84,90.51,–,1.59 ± 0.44,40.9 ± 2.54,14.6 ± 1.59,–,Q3: viable cells (A549 cells [1]): 48.35%
"CC(=O)Nc1ccccc1OCc1nnc(SCC(=O)Nc2nc3ccc(C)cc3s2)o1 [Compound 4e, 2-[(5-((2-Acetamidophenoxy)methyl)-1,3,4-oxadiazol-2-yl)thio]-N-(6-methylbenzothiazol-2-yl)acetamide]",–,–,–,–,–,–,–,–,–,–,–,19.5 ± 3.18,43 ± 2.79,> 50,29.9 ± 3.01,458 ± 28.2,SI (L929/A549) [3]: 0.69; melting point: 213 to 216 °C
"CC(=O)Nc1ccccc1OCc1nnc(SCC(=O)Nc2ccc(Cl)cc2)o1 [Compound 4k, 2-[(5-((2-Acetamidophenoxy)methyl)-1,3,4-oxadiazol-2-yl)thio]-N-(4-chlorophenyl)acetamide]",33.19,17.98,10.35,7.63,18.11,63.31,18.58,1.8,98.5,6.29,93.04,–,7.48 ± 0.58,48.4 ± 3.56,38.2 ± 4.91,> 1000,Q3: viable cells (A549 cells [1]): 48.83%
"CC(=O)Nc1ccccc1OCc1nnc(SCC(=O)Nc2nc3ccc(Cl)cc3s2)o1 [Compound 4b, 2-[(5-((2-Acetamidophenoxy)methyl)-1,3,4-oxadiazol-2-yl)thio]-N-(6-chlorobenzothiazol-2-yl)acetamide]",–,–,–,–,–,–,–,–,–,–,–,–,24.5 ± 5.76,49.5 ± 1.86,< 7.96,19.9 ± 6.33,–
"CC(=O)Nc1ccccc1OCc1nnc(SCC(=O)Nc2nc3ccc([N+](=O)[O-])cc3s2)o1 [Compound 4d, 2-[(5-((2-Acetamidophenoxy)methyl)-1,3,4-oxadiazol-2-yl)thio]-N-(6-nitrobenzothiazol-2-yl)acetamide]",–,–,–,–,–,–,–,–,–,–,–,–,> 1030,27.6 ± 2.01,< 7.96,28.3 ± 12.1,IC50 ([3]; A549 cell line): > 1000 µM; IC50 ([5]; L929 healthy cell line): < 7.8 µM
"COc1ccc2nc(NC(=O)CSc3nnc(COc4ccccc4NC(C)=O)o3)sc2c1 [Compound 4c, 2-[(5-((2-Acetamidophenoxy)methyl)-1,3,4-oxadiazol-2-yl)thio]-N-(6-methoxybenzothiazol-2-yl)acetamide]",–,–,–,–,–,–,–,–,–,–,–,–,> 1030,30.6 ± 2.29,8.52 ± 0.31,22.1 ± 23.7,IC50 ([3]; A549 cell line): > 1000 µM
"CCOc1ccc2nc(NC(=O)CSc3nnc(COc4ccccc4NC(C)=O)o3)sc2c1 [Compound 4g, 2-[(5-((2-Acetamidophenoxy)methyl)-1,3,4-oxadiazol-2-yl)thio]-N-(6-ethoxybenzothiazol-2-yl)acetamide]",–,–,–,–,–,–,–,–,–,–,–,7.1 ± 1.27,< 7.82,> 75,< 7.96,8.16 ± 0.24,"inhibition of A549 at the lowest concentration tested ([3]; A549, MTT, lowest concentration tested): greater than 50%; SI (L929/A549) [3]: <1; melting point: 208 to 212 °C; IC50 ([5]; L929 healthy cell line): < 7.82 µM"
"CC(=O)Nc1ccccc1OCc1nnc(SCC(=O)Nc2nc3ccccc3s2)o1 [Compound 4a, 2-[(5-((2-Acetamidophenoxy)methyl)-1,3,4-oxadiazol-2-yl)thio]-N-(benzothiazol-2-yl)acetamide]",–,–,–,–,–,–,–,–,–,–,–,–,22.3 ± 1.67,41.4 ± 1.85,586 ± 22.9,18.5 ± 5.58,SI (L929/A549) [3]: 26.250; melting point: 189 to 194 °C
"CC(=O)Nc1ccccc1OCc1nnc(SCC(=O)Nc2ccc(F)cc2)o1 [Compound 4l, 2-[(5-((2-Acetamidophenoxy)methyl)-1,3,4-oxadiazol-2-yl)thio]-N-(4-fluorophenyl)acetamide]",32.81,18.49,11.46,7.03,6.62,69.36,24.03,1.4,98.8,8.71,90.58,2.55 ± 0.66,1.8 ± 0.12,> 75,397 ± 10.2,> 1000,Q3: viable cells (A549 cells [1]): 48.70%
